Bounds are passed on as bounds.

Assay [1] deals with T1, human adenosine A1 receptor (Homo sapiens, UniProt P30542).
T1 construct: expressed in transfected cells; host or cells: HEK293 cells infected with BacMam (the same paragraph also labels the preparation CHO-hA1)
T1 sequence (P30542 1-326): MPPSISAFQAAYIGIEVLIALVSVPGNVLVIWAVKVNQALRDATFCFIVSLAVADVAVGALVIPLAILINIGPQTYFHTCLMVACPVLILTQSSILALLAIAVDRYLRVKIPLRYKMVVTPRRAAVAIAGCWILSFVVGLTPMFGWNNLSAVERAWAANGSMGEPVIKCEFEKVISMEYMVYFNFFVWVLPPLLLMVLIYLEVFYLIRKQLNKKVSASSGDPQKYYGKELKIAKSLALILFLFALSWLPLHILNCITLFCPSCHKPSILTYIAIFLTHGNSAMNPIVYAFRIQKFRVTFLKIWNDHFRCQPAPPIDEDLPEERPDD
The experiment in a line: Inhibition binding assay, human adenosine A1 receptor membranes, [3H]DPCPX. As to conditions: 1 nM [3H]DPCPX, 25° C., 1 h; IC50 converted to Ki with Cheng-Prusoff; read-out: A1 pKi (converted). Put shortly: (§1)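 Membranes from BacMam-infected HEK293 cells (0.2 μg A2A, 1.4 μg A1) incubated 1 h at 25° C with test compound and 1 nM [3H]ZM241385 (A2A; 50 mM Tris-HCl pH 7.4) or [3H]DPCPX (A1; plus 100 mM NaCl, 10 mM MgCl2). Nonspecific: 1 μM CGS15943 or DPCPX. Filtration, scintillation; IC50 converted to Ki via Cheng-Prusoff.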

In assay [2] the target is T2, human adenosine A2A receptor (Homo sapiens, UniProt P29274).
T2 construct: expressed in transfected cells; host or cells: HEK293 cells infected with BacMam
T2 sequence (P29274 whole entry): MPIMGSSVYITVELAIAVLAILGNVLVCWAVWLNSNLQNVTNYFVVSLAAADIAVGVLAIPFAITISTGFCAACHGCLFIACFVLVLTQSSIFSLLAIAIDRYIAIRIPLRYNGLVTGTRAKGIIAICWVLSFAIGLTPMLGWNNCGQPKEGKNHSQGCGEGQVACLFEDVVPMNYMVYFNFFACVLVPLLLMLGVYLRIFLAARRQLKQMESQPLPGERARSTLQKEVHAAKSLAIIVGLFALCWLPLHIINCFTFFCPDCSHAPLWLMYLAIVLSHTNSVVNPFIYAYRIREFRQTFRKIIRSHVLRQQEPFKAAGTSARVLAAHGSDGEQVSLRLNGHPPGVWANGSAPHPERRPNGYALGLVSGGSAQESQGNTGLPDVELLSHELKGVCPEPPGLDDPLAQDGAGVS
The assay is described as follows: Inhibition binding assay, human adenosine A2A receptor membranes, [3H]ZM241385. The note with it: 1 nM [3H]ZM241385, HEK293-hA2A membranes, 25° C., 1 h; IC50 converted to Ki with Cheng-Prusoff; read-out: A2A pKi (converted). In a few lines:
as §1

With `COC(=O)CCN1CCC(CCn2nc3c(-c4cc(C)nc(C)c4)c(-c4ccccc4)nc(N)n3c2=O)CC1` [Example 2-109, methyl 3-[4-[2-[5-amino-8-(2,6-dimethyl-4-pyridyl)-3-oxo-7-phenyl-[1,2,4]triazolo[4,3-c]pyrimidin-2-yl]ethyl]-1-piperidyl]propanoate], the Ki in assay [1] was 398 nM; in assay [2], 20 nM.
For the molecule `Cc1cc(-c2c(-c3ccccc3)nc(N)n3c(=O)n(C4Cc5ccc(N)cc5C4)nc23)cc(C)n1` (stereo not drawn) [Example 1-104, 5-amino-2-(5-aminoindan-2-yl)-8-(2,6-dimethyl-4-pyridyl)-7-phenyl-[1,2,4]triazolo[4,3-c]pyrimidin-3-one], the Ki was 100 nM in assay [1] and 2 nM in assay [2].
Take `[2H]c1c([2H])c([2H])c(-c2nc(N)n3c(=O)n(CCC(F)(F)F)nc3c2-c2cc(C)nc(CO)c2)c([2H])c1[2H]` [Example 2-61, 5-amino-8-[2-(hydroxymethyl)-6-methyl-4-pyridyl]-7-(2,3,4,5,6-pentadeuteriophenyl)-2-(3,3,3-trifluoropropyl)-[1,2,4]triazolo[4,3-c]pyrimidin-3-one]: the Ki is 631 nM in assay [1] and 1.26 nM in assay [2].
For the molecule `Cc1cc(-c2c(-c3ccccc3)nc(N)n3c(=O)n(CC4CCCOC4)nc23)cc(CO)n1` (single isomer, unassigned) [Example 2-92-iso-2, 5-amino-8-[2-(hydroxymethyl)-6-methyl-4-pyridyl]-7-phenyl-2-(tetrahydropyran-3-ylmethyl)-[1,2,4]triazolo[4,3-c]pyrimidin-3-one], the Ki in assay [1] was 316 nM; in assay [2] it was 1.26 nM.
With `Cc1cc(-c2c(Cl)nc(N)n3c(=O)n(CCC(F)(F)F)nc23)cc(C)n1` [Example 3-5, 5-amino-7-chloro-8-(2,6-dimethyl-4-pyridyl)-2-(3,3,3-trifluoropropyl)-[1,2,4]triazolo[4,3-c]pyrimidin-3-one], the results for the Ki in assay [1] and in assay [2] were more than 3160 nM and 631 nM, respectively.
On the same counts, the results for `Cc1cc(-c2c(-c3ccccc3)nc(N)n3c(=O)n(Cc4ccccc4CN(C)C)nc23)cc(C)n1` [Example 1-24, 5-amino-2-[[2-[(dimethylamino)methyl]phenyl]methyl]-8-(2,6-dimethyl-4-pyridyl)-7-phenyl-[1,2,4]triazolo[4,3-c]pyrimidin-3-one] are 15.8 nM and 0.126 nM.
Consider `CCC(c1ccc(F)cn1)n1nc2c(-c3cc(C)nc(C)c3)c(-c3ccccc3)nc(N)n2c1=O` (single isomer, unassigned) [1-38 iso-1, 5-amino-8-(2,6-dimethyl-4-pyridyl)-2-[1-(5-fluoro-2-pyridyl)propyl]-7-phenyl-[1,2,4]triazolo[4,3-c]pyrimidin-3-one], for which the Ki in assay [1] was 501 nM; in assay [2], 63.1 nM.
For the molecule `Cc1cc(-c2c(-c3ccccc3)nc(N)n3c(=O)n(CCN(C)C4CC4)nc23)cc(C)n1` [Example 2-19, 5-amino-2-[2-[cyclopropyl(methyl)amino]ethyl]-8-(2,6-dimethyl-4-pyridyl)-7-phenyl-[1,2,4]triazolo[4,3-c]pyrimidin-3-one], the Ki in assay [1] was 398 nM; in assay [2], 3.98 nM.
In the same order, the values of `Cc1cc(-c2c(-c3ccccc3)nc(N)n3c(=O)n(CCC(F)F)nc23)cc(C)n1` [Example 2-17, 5-amino-2-(3,3-difluoropropyl)-8-(2,6-dimethyl-4-pyridyl)-7-phenyl-[1,2,4]triazolo[4,3-c]pyrimidin-3-one] are 1000 nM and 2 nM.
Regarding `C/C=C(\C)c1nc(N)n2c(=O)n(CCC(F)(F)F)nc2c1-c1cc(C)nc(C)c1` [Example 3-10, 5-amino-8-(2,6-dimethyl-4-pyridyl)-7-[(E)-1-methylprop-1-enyl]-2-(3,3,3-trifluoropropyl)-[1,2,4]triazolo[4,3-c]pyrimidin-3-one], the Ki was more than 3160 nM in assay [1] and 10 nM in assay [2].
As for `COc1cc(-c2c(-c3ccccc3)nc(N)n3c(=O)n(Cc4ccc(F)cn4)nc23)cc(CO)n1` [Example 1-73, 5-amino-2-[(5-fluoro-2-pyridyl)methyl]-8-[2-(hydroxymethyl)-6-methoxy-4-pyridyl]-7-phenyl-[1,2,4]triazolo[4,3-c]pyrimidin-3-one], the Ki in assay [1] is 398 nM; in assay [2], 2.51 nM.
With `Cc1cc(-c2c(-c3ccccc3)nc(N)n3c(=O)n(CCC(C)C)nc23)cc(C)n1` [Example 2-5, 5-amino-8-(2,6-dimethyl-4-pyridyl)-2-isopentyl-7-phenyl-[1,2,4]triazolo[4,3-c]pyrimidin-3-one], the Ki in assay [1] is 39.8 nM; in assay [2] it was 0.794 nM.
In the same order, the values of `Cc1cc(-c2c(-c3ccccc3)nc(N)n3c(=O)n(Cc4cccc(=O)[nH]4)nc23)cc(C)n1` [Example 1-9, 5-amino-8-(2,6-dimethyl-4-pyridyl)-2-[(6-oxo-1H-pyridin-2-yl)methyl]-7-phenyl-[1,2,4]triazolo[4,3-c]pyrimidin-3-one] are 126 nM and 12.6 nM.
In the same order, the values of `Cc1cc(-c2c(-c3ccccc3)nc(N)n3c(=O)n(C(CNCC(F)(F)F)c4ccccc4)nc23)cc(C)n1` (stereo not drawn) [Example 1-31, 5-amino-8-(2,6-dimethyl-4-pyridyl)-7-phenyl-2-[1-phenyl-2-(2,2,2-trifluoroethylamino)ethyl]-[1,2,4]triazolo[4,3-c]pyrimidin-3-one] are 316 nM and 10 nM.
On the same counts, the results for `COc1ccc(Cn2nc3c(-c4cc(C)nc(C)c4)c(-c4ccccc4)nc(N)n3c2=O)nn1` [Example 1-33, 5-amino-8-(2,6-dimethyl-4-pyridyl)-2-[(6-methoxypyridazin-3-yl)methyl]-7-phenyl-[1,2,4]triazolo[4,3-c]pyrimidin-3-one] are 1000 nM and 25.1 nM.
For the molecule `Cc1cc(-c2c(-c3ccccc3)nc(N)n3c(=O)n(CCN4C[C@@H](C)O[C@@H](C)C4)nc23)cc(C)n1` [Example 2-100, 5-amino-2-[2-((ds)-2,6-dimethylmorpholin-4-yl)ethyl]-8-(2,6-dimethyl-4-pyridyl)-7-phenyl-[1,2,4]triazolo[4,3-c]pyrimidin-3-one], the Ki is more than 3160 nM in assay [1] and 316 nM in assay [2].
On to `Cc1cc(-c2c(-c3ccc(C)o3)nc(N)n3c(=O)n(CCC(F)(F)F)nc23)cc(C)n1` [Example 2-43, 5-amino-8-(2,6-dimethyl-4-pyridyl)-7-(5-methyl-2-furyl)-2-(3,3,3-trifluoropropyl)-[1,2,4]triazolo[4,3-c]pyrimidin-3-one], for which the Ki in assay [1] is 501 nM; in assay [2], 2 nM.
For the molecule `COc1cc(C)nc(Cn2nc3c(-c4cc(C)nc(C)c4)c(-c4ccccc4)nc(N)n3c2=O)c1` [Example 1-29, 5-amino-8-(2,6-dimethyl-4-pyridyl)-2-[(4-methoxy-6-methyl-2-pyridyl)methyl]-7-phenyl-[1,2,4]triazolo[4,3-c]pyrimidin-3-one], the Ki is 12.6 nM in assay [1] and 0.501 nM in assay [2].
In the same order, the values of `Cc1cc(-c2c(-c3ccccc3)nc(N)n3c(=O)n(C[C@H]4COCCN4)nc23)cc(C)n1` [Example 2-76, 5-amino-8-(2,6-dimethyl-4-pyridyl)-2-[[(3S)-morpholin-3-yl]methyl]-7-phenyl-[1,2,4]triazolo[4,3-c]pyrimidin-3-one] are 631 nM and 15.8 nM.
In the same order, the values of `COc1cnc(Cn2nc3c(-c4cc(C)nc(CO)c4)c(-c4ccccc4)nc(N)n3c2=O)c(F)c1` [Example 1-47, 5-amino-2-[(3-fluoro-5-methoxy-2-pyridyl)methyl]-8-[2-(hydroxymethyl)-6-methyl-4-pyridyl]-7-phenyl-[1,2,4]triazolo[4,3-c]pyrimidin-3-one] are 501 nM and 7.94 nM.
On the same counts, the results for `Cc1cc(-c2c(-c3ccccc3)nc(N)n3c(=O)n(CC4CCN(C)CC4)nc23)cc(C)n1` [Example 2-78, 5-amino-8-(2,6-dimethyl-4-pyridyl)-2-[(1-methyl-4-piperidyl)methyl]-7-phenyl-[1,2,4]triazolo[4,3-c]pyrimidin-3-one] are more than 3160 nM and 200 nM.
Consider `Cc1cc(-c2c(-c3ccccc3)nc(N)n3c(=O)n(C[C@@H]4COCCN4)nc23)cc(C)n1` [Example 2-79, (R)-5-amino-8-(2,6-dimethylpyridin-4-yl)-2-(morpholin-3-ylmethyl)-7-phenyl-[1,2,4]triazolo[4,3-c]pyrimidin-3(2H)-one], for which the Ki in assay [1] was 794 nM; in assay [2], 15.8 nM.
For `COC(=O)c1nc(N)n2c(=O)n(CCC(F)(F)F)nc2c1-c1cc(C)nc(C)c1` [Example 3-6, methyl 5-amino-8-(2,6-dimethyl-4-pyridyl)-3-oxo-2-(3,3,3-trifluoropropyl)-[1,2,4]triazolo[4,3-c]pyrimidine-7-carboxylate], the values for the Ki in assay [1] and in assay [2] were more than 3160 nM and 200 nM, respectively.
For the molecule `Cc1cc(-c2c(-c3ccncc3)nc(N)n3c(=O)n(CCC(F)(F)F)nc23)cc(C)n1` [Example 2-38, 5-amino-8-(2,6-dimethyl-4-pyridyl)-7-(4-pyridyl)-2-(3,3,3-trifluoropropyl)-[1,2,4]triazolo[4,3-c]pyrimidin-3-one], the Ki in assay [1] was more than 3980 nM; in assay [2] it was 39.8 nM.

(Values after patent publication US12528815B2, “5-amino-8-(4-pyridyl)-[1,2,4]triazolo[4,3-c]pyrimidin-3-one compounds for use against cancer” (Nxera Pharma UK Limited, priority 2020, dated 2026).)
